The record followed here is patent US20040082635A1, “Fused cyclic compounds and medicinal use thereof” (priority 2001, published 2004).

Counter-ions that a name gives are not always drawn.

In the assay the target is T1, HCV polymerase (Hepatitis C virus genotype 1b, UniProt P26663).
T1 construct: a region encoding NS5B (591 amino acids; J Virol 1991 Mar, 65(3), 1105-13) was amplified by PCR; 6 His (N); made in house; host or cells: Escherichia coli
T1 sequence (P26663 2420-3010): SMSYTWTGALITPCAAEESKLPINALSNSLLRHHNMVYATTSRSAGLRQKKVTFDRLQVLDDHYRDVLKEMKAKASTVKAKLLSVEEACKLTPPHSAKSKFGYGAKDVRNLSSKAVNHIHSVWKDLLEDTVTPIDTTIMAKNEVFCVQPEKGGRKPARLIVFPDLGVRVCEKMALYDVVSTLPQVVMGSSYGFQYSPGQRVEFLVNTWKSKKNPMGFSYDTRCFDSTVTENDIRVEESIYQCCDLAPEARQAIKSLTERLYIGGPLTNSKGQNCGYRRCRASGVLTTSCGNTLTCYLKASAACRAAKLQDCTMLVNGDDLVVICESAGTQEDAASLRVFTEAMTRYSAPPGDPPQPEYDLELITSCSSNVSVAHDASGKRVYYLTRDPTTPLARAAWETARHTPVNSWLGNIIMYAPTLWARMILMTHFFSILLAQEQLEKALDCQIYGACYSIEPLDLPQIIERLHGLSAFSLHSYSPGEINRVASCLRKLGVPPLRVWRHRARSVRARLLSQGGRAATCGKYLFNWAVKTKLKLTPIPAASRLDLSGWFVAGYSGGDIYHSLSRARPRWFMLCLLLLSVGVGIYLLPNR
In words: biochemical. The note with it: read-out: HCV polymerase inhibitory activity IC50.
`N/C(=N\O)c1ccc(-c2ccc(Cl)cc2)c(COc2ccc(-c3nc4cc(C(=O)O)ccc4n3C3CCCCC3)c(F)c2)c1` [Example 373, 2-{4-[2-(4-chlorophenyl)-5-(N-hydroxyamidino)benzyloxy]-2-fluorophenyl}-1-cyclohexylbenzimidazole-5-carboxylic acid dihydrochloride]: the IC50 came out at 13 nM.
With `O=C(O)c1ccc2c(c1)nc(-c1ccc(OCc3cc(-c4noc(=O)[nH]4)ccc3-c3ccc(Cl)cc3)cc1F)n2C1CCCCC1` [Example 374, 2-{4-[2-(4-chlorophenyl)-5-(2,5-dihydro-5-oxo-4H-1,2,4-oxadiazol-3-yl)benzyloxy]-2-fluorophenyl}-1-cyclohexylbenzimidazole-5-carboxylic acid hydrochloride], the half-inhibitory concentration (IC50) turned out to be 13 nM.
In the case of `O=C(O)c1ccc2c(c1)nc(-c1ccc(OCc3cc(C4=NOS(=O)N4)ccc3-c3ccc(Cl)cc3)cc1F)n2C1CCCCC1` (stereo not drawn) [Example 375, 2-{4-[2-(4-chlorophenyl)-5-(2-oxo-3H-1,2,3,5-oxathiadiazol-4-yl)benzyloxy]-2-fluorophenyl}-1-cyclohexylbenzimidazole-5carboxylic acid hydrochloride], the IC50 was 12 nM.
For `O=C(O)c1ccc2c(c1)nc(-c1ccc(OCc3cc(-c4nsc(=O)[nH]4)ccc3-c3ccc(Cl)cc3)cc1F)n2C1CCCCC1` [Example 376, 2-{4-[2-(4-chlorophenyl)-5-(2,5-dihydro-5-oxo-4H-1,2,4-thiadiazol-3-yl)benzyloxy]-2-fluorophenyl}-1-cyclohexylbenzimidazole-5-carboxylic acid hydrochloride] the value was 14 nM; for `O=C(O)c1ccc2c(c1)nc(-c1ccc(OCc3cc(C(=O)NC4CC4)ccc3-c3ccc(Cl)cc3)cc1F)n2C1CCCCC1` [Example 377, 2-{4-[2-(4-chlorophenyl)-5-(cyclopropylcarbamoyl)benzyloxy]-2-fluorophenyl}-1-cyclohexylbenzimidazole-5-carboxylic acid hydrochloride], 12 nM.
Consider `O=C(O)c1ccc2c(c1)nc(-c1ccc(OCc3cc(C(=O)NC4CCC4)ccc3-c3ccc(Cl)cc3)cc1F)n2C1CCCCC1` [Example 378, 2-{4-[2-(4-chlorophenyl)-5-(cyclobutylcarbamoyl)benzyloxy]-2-fluorophenyl}-1-cyclohexylbenzimidazole-5-carboxylic acid hydrochloride], for which the IC50 turned out to be 18 nM.
As for `CC(C)(C)NC(=O)c1ccc(-c2ccc(Cl)cc2)c(COc2ccc(-c3nc4cc(C(=O)O)ccc4n3C3CCCCC3)c(F)c2)c1` [Example 379, 2-{4-[2-(4-chlorophenyl)-5-(tert-butylcarbamoyl)benzyloxy]-2-fluorophenyl}-1-cyclohexylbenzimidazole-5-carboxylic acid hydrochloride], the figure is 21 nM; as for `CC(C)CNC(=O)c1ccc(-c2ccc(Cl)cc2)c(COc2ccc(-c3nc4cc(C(=O)O)ccc4n3C3CCCCC3)c(F)c2)c1` [Example 380, 2-{4-[2-(4-chlorophenyl)-5-(isobutylcarbamoyl)benzyloxy]-2-fluorophenyl}-1-cyclohexylbenzimidazole-5-carboxylic acid hydrochloride], 23 nM.
Consider `CC(CO)NC(=O)c1ccc(-c2ccc(Cl)cc2)c(COc2ccc(-c3nc4cc(C(=O)O)ccc4n3C3CCCCC3)c(F)c2)c1` (stereo not drawn) [Example 381, 2-{4-[2-(4-chlorophenyl)-5-{(1-hydroxypropan-2-yl)carbamoyl}-benzyloxy]-2-fluorophenyl}-1-cyclohexylbenzimidazole-5-carboxylic acid hydrochloride], for which the IC50 is 11 nM.
With `CONC(=O)c1ccc(-c2ccc(Cl)cc2)c(COc2ccc(-c3nc4cc(C(=O)O)ccc4n3C3CCCCC3)c(F)c2)c1` [Example 382, 2-{4-[2-(4-chlorophenyl)-5-(methoxycarbamoyl)benzyloxy]-2-fluorophenyl}-1-cyclohexylbenzimidazole-5-carboxylic acid hydrochloride], the IC50 was found to be 15 nM.
As for `O=C(O)c1ccc2c(c1)nc(-c1ccc(OCc3cc(C(=O)NCC(O)CO)ccc3-c3ccc(Cl)cc3)cc1F)n2C1CCCCC1` (stereo not drawn) [Example 383, 2-{4-[2-(4-chlorophenyl)-5-{(2,3-dihydroxypropyl)carbamoyl}-benzyloxy]-2-fluorophenyl}-1-cyclohexylbenzimidazole-5-carboxylic acid hydrochloride], the IC50 was determined as 13 nM.
On to `CCN(C)C(=O)c1ccc(-c2ccc(Cl)cc2)c(COc2ccc(-c3nc4cc(C(=O)O)ccc4n3C3CCCCC3)c(F)c2)c1` [Example 384, 2-{4-[2-(4-chlorophenyl)-5-(N-ethyl-N-methylcarbamoyl)benzyloxy]-2-fluorophenyl}-1-cyclohexylbenzimidazole-5-carboxylic acid hydrochloride], for which the concentration for half-maximal inhibition (IC50) stood at 16 nM.
Regarding `CCCN(C)C(=O)c1ccc(-c2ccc(Cl)cc2)c(COc2ccc(-c3nc4cc(C(=O)O)ccc4n3C3CCCCC3)c(F)c2)c1` [Example 385, 2-{4-[2-(4-chlorophenyl)-5-(N-methyl-N-propylcarbamoyl)-benzyloxy]-2-fluorophenyl}-1-cyclohexylbenzimidazole-5-carboxylic acid hydrochloride], the 50% inhibitory concentration (IC50) worked out at 19 nM.
As for `CC(C)N(C)C(=O)c1ccc(-c2ccc(Cl)cc2)c(COc2ccc(-c3nc4cc(C(=O)O)ccc4n3C3CCCCC3)c(F)c2)c1` [Example 386, 2-{4-[2-(4-chlorophenyl)-5-(N-isopropyl-N-methylcarbamoyl)-benzyloxy]-2-fluorophenyl}-1-cyclohexylbenzimidazole-5-carboxylic acid hydrochloride], the figure is 18 nM.
Regarding `C[C@@H]1CCC[C@H](C)N1C(=O)c1ccc(-c2ccc(Cl)cc2)c(COc2ccc(-c3nc4cc(C(=O)O)ccc4n3C3CCCCC3)c(F)c2)c1` [Example 387, 2-{4-[2-(4-chlorophenyl)-5-(2,6-dimethylpiperidin-1-ylcarbonyl)-benzyloxy]-2-fluorophenyl}-1-cyclohexylbenzimidazole-5-carboxylic acid hydrochloride], the IC50 worked out at 25 nM.
For the compound `CCCCNC(=O)c1ccc(-c2ccc(Cl)cc2)c(COc2ccc(-c3nc4cc(C(=O)O)ccc4n3C3CCCCC3)c(F)c2)c1` [Example 388, 2-{4-[5-(butylcarbamoyl)-2-(4-chlorophenyl)benzyloxy]-2-fluorophenyl}-1-cyclohexylbenzimidazole-5-carboxylic acid hydrochloride], the IC50 is 20 nM.
For `CCCNC(=O)c1ccc(-c2ccc(Cl)cc2)c(COc2ccc(-c3nc4cc(C(=O)O)ccc4n3C3CCCCC3)c(F)c2)c1` [Example 389, 2-{4-[2-(4-chlorophenyl)-5-(propylcarbamoyl)benzyloxy]-2-fluorophenyl}-1-cyclohexylbenzimidazole-5-carboxylic acid hydrochloride], the concentration for half-maximal inhibition (IC50) was determined as 12 nM.
As to `CCNC(=O)c1ccc(-c2ccc(Cl)cc2)c(COc2ccc(-c3nc4cc(C(=O)O)ccc4n3C3CCCCC3)c(F)c2)c1` [Example 390, 2-{4-[2-(4-chlorophenyl)-5-(ethylcarbamoyl)benzyloxy]-2-fluorophenyl}-1-cyclohexylbenzimidazole-5-carboxylic acid hydrochloride], the half-maximal inhibitory concentration (IC50) came to 14 nM.

In general, IC50 refers to the concentration that inhibits the measured activity by half.
